Reference: PMC8588511, “Chromane Derivatives from Underground Parts of Iris tenuifolia and Their In Vitro Antimicrobial, Cytotoxicity and Antiproliferative Evaluation” (Molecules, 2021)
Entries after “also recorded” stand apart in the source; their conditions may differ. Like-named read-outs stand apart in the source and are kept apart here.

Columns and labels:
[1] = test system: human acute monocytic leukemia cells (THP-1); assay: antiproliferation assay (CellTiter-Blue); format: cell-based; settings: for GI50: THP-1, 72 h, read-out: Antiproliferative Effect, GI50 (CI 95%)
Experimental: (§1) In this assay, K-562 (DSM ACC 10), THP-1 (DSM ACC 16), and HeLa (DSM ACC 57) were maintained in Roswell Park Memorial Institute (RPMI) 1640 medium (Cambrex 12-167F) while HUVEC (ATCC CRL-1730) and A549 (DSM ACC 107) were cultured in Dulbecco’s Modified Eagle’s Medium (DMEM) (Cambrex 12-614F). Cells that were grown in the appropriate cell culture medium were supplemented with 10 mL/L ultraglutamine 1 (Cambrex 17-605E/U1), 550 µL/L (50 mg/mL) gentamicin sulfate (Cambrex 17-518Z), and 10% heat inactivated fetal bovine serum (GIBCO Life Technologies 10270-106) at 37 °C. The tested compounds were dissolved in DMSO, and the cells were seeded in 96-well plates at a density of 1 × 10^4 cells/well. As for the antiproliferative effect of the compounds, the cells were incubated for 72 h, and GI50 values were evaluated to be defined as the concentration causing 50% inhibition of proliferation compared to the untreated control. With regard to the cytotoxic assay, HeLa cells were pre-incubated for 48 h without the test compounds. Then, the cells were exposed with different concentrations of compounds and incubated for 72 h. After that, the adherent HeLa cells were fixed by glutaraldehyde and stained with a 0.05% solutions of methylene blue (SERVA 29198) for 15 min. CC50 was evaluated to be defined as the concentration required for the death of 50% of the cell monolayer as compared to control groups. Under our experimental conditions, the optical density measured from the CellTiter-Blue reagent and methylene blue assay is proportional to the number of viable cells. In this experiment, absorbances were measured at 570 nm against the reference wavelength of 600 nm (CellTiter-Blue assay) and at 660 nm (methylene blue assay). Doxorubicin (Adriamycin®) and imatinib (Gleevec®) were used as positive controls for HUVEC, K-562, and HeLa cells. A repeat determination has been conducted in all experiments, and four replicates were assayed. The calculations of the different values of GI50 and CC50 were performed with software Magellan version 3.00 (Tecan Trading AG, Maennedorf, Switzerland).

[2] = test system: human chronic myeloid leukemia cells (K-562); assay: antiproliferation assay (CellTiter-Blue); format: cell-based; settings: for GI50: K-562, 72 h, read-out: Antiproliferative Effect, GI50 (CI 95%)
Experimental: as §1

[3] = test system: human lung carcinoma cells (A549); assay: antiproliferation assay (CellTiter-Blue); format: cell-based; settings: A549, 72 h, read-out: Antiproliferative Effect, GI50 (CI 95%)
Experimental: as §1

[4] = test system: human umbilical vein endothelial cells (HUVEC); assay: antiproliferation assay (CellTiter-Blue); format: cell-based; settings: 72 h, read-out: Antiproliferative Effect, GI50 (CI 95%)
Experimental: as §1

[5] = test system: human cervix carcinoma cells (HeLa); assay: cytotoxicity assay (methylene blue); format: cell-based
Experimental: as §1

[6] = test system: Candida albicans (C.alb.H8); assay: agar diffusion antifungal assay; format: cell-based; settings: for zone of inhibition at 1000 µg/mL: read-out: Inhibition Zone of Test Microorganism; for antifungal activity in words: Candida albicans, agar diffusion
Experimental: (§2) Compounds 1, 2, 3, 5, 9, and 10 were tested for their antimicrobial activities against S. aureus (JMRC:STI 10760), B. subtilis (JMRC:STI 10880), S. aureus MRSA (JMRC: ST 33793) E. faecalis VRE (JMRC: ST 33700), E. coli (JMRC:ST 33699), P. aeruginosa (JMRC:ST 33771), P. aeruginosa (JMRC:ST 33772), M. vaccae (JMRC:STI 10670), S. salmonicolor (JMRC:ST 35974), C. albicans (JMRC:STI 25000), and P. notatum (JMRC:STI 50164)) using agar diffusion assay as previously published. Strains were obtained from the Jena Microbial Resource Collection (JMRC). The bacteria were cultivated on standard I nutrient agar in Petri dishes at 37 °C. Antifungal bioassays were conducted at 30 °C using the basidiomycetous yeast S. salmonicolor and the filamentous ascomycete P. notatum, which were cultivated on malt agar, and the ascomycetous yeast C. albicans, which was cultivated on yeast morphology agar. After inoculation of the test organisms, a disc (9 mm in diameter) was removed from the center of the Petri dish and 50 μL of the test solution (1 mg/mL in DMSO) was added to the cavity. After 18 h of incubation, the inhibiting areola were measured and documented as diameters in mm. Ciprofloxacin (5 µg/mL in deionized water) and amphotericin B (10 µg/mL in DMSO/MeOH 1:1) were used as reference substances against bacterial and fungal strains, respectively.

[7] = test system: Penicillium notatum (JP36 P1); assay: agar diffusion antifungal assay; format: cell-based
Experimental: as §2

[8] = test system: Sporobolomyces salmonicolor (549 H4); assay: agar diffusion antifungal assay; format: cell-based; settings: 50 μL of 1 mg/mL in DMSO, 18 h, 30 °C, amphotericin B 10 µg/mL
Experimental: as §2

[9] = test system: Bacillus subtilis (6633 B1); assay: agar diffusion antimicrobial assay; format: cell-based; settings: Bacillus subtilis (6633 B1), 50 μL of 1 mg/mL in DMSO, 18 h, ciprofloxacin 5 µg/mL; for zone of inhibition at 1000 µg/mL: read-out: Inhibition Zone of Test Microorganism
Experimental: as §2

[10] = test system: Enterococcus faecalis (VRE 1528 R10); assay: agar diffusion antimicrobial assay; format: cell-based; settings: Enterococcus faecalis (VRE 1528 R10), 50 μL of 1 mg/mL in DMSO, 18 h, ciprofloxacin 5 µg/mL; for zone of inhibition at 1000 µg/mL: read-out: Inhibition Zone of Test Microorganism
Experimental: as §2

[11] = test system: Escherichia coli (458 B4); assay: agar diffusion antimicrobial assay; format: cell-based; settings: 50 μL of 1 mg/mL in DMSO, 18 h, ciprofloxacin 5 µg/mL
Experimental: as §2

[12] = test system: Mycobacterium vaccae (10670 M4); assay: agar diffusion antimicrobial assay; format: cell-based; settings: Mycobacterium vaccae (10670 M4), 50 μL of 1 mg/mL in DMSO, 18 h, ciprofloxacin 5 µg/mL; for zone of inhibition at 1000 µg/mL: Mycolicibacterium vaccae, read-out: Inhibition Zone of Test Microorganism
Experimental: as §2

[13] = test system: Staphylococcus aureus (511 B3); assay: agar diffusion antimicrobial assay; format: cell-based; settings: 50 μL of 1 mg/mL in DMSO, 18 h, ciprofloxacin 5 µg/mL
Experimental: as §2

[14] = test system: Staphylococcus aureus (MRSA 134/94 R9); assay: agar diffusion antimicrobial assay; format: cell-based; settings: 50 μL of 1 mg/mL in DMSO, 18 h, ciprofloxacin 5 µg/mL
Experimental: as §2

[15] = test system: Pseudomonas aeruginosa (K799/61 B9); assay: agar diffusion antimicrobial assay; format: cell-based; settings: 18 h
Experimental: as §2

[16] = test system: Pseudomonas aeruginosa (SG137 B7); assay: agar diffusion antimicrobial assay; format: cell-based; settings: 50 μL of 1 mg/mL in DMSO, 18 h, ciprofloxacin 5 µg/mL
Experimental: as §2

[17] = cytotoxicity assay (methylene blue); format: cell-based, human; settings: human, HeLa cells (DSM ACC 57); HeLa, 72 h; read-out: Cytotoxicity CC50 (CI 95%)
Experimental: as §1

[18] = test system: three fungi and eight bacterial strains; assay: agar diffusion assay, whole panel; format: cell-based; settings: eleven microorganisms
Experimental: as §2

[19] = Candida albicans (C.alb.H8), 50 μL of 1 mg/mL in DMSO, 18 h, 30 °C, amphotericin B 10 µg/mL
[20] = read-out: Inhibition Zone of Test Microorganism

| Compound | Inhibition Zone of Test Microorganism [14] | zone of inhibition at 1000 µg/mL [9] [mm] | zone of inhibition at 1000 µg/mL [10] [mm] | zone of inhibition at 1000 µg/mL [12] [mm] | Inhibition Zone of Test Microorganism [16] | zone of inhibition at 1000 µg/mL [6, 19] [mm] | antifungal activity in words [6] | GI50 ([1]; Homo sapiens) [µM] | GI50 ([2]; Homo sapiens, K562) [µM] | GI50 ([3]; Homo sapiens) [µM] | GI50 ([4]; Homo sapiens) [µM] | CC50 at 72 h [17] [µM] | antimicrobial activity over the panel in words [18] | further results |
| --- | --- | --- | --- | --- | --- | --- | --- | --- | --- | --- | --- | --- | --- | --- |
| 3,5,3′-Trihydroxy-7,2′-dimethoxyflavonol [Compound 11] |  |  |  |  |  |  |  |  |  |  |  |  |  | GI50 [1]: 50.6 µM; GI50 [2]: 71.5 µM; GI50 [3]: 67 µM; GI50 [4]: > 100 µM; CC50 [5]: > 100 µM |
| C[C@@H]1[C@H](O)[C@@H](C)/C=C/C=C/C=C/C=C/C=C/C=C/C=C/[C@H](O[C@@H]2O[C@H](C)[C@@H](O)[C@H](N)[C@@H]2O)C[C@@H]2O[C@](O)(C[C@@H](O)C[C@@H](O)[C@H](O)CC[C@@H](O)C[C@@H](O)CC(=O)O[C@H]1C)C[C@H](O)[C@H]2C(=O)O [Amphotericin B, reference compound] |  |  |  |  |  |  |  |  |  |  |  |  |  | Inhibition Zone of Test Microorganism [6, 19]: 20 mm; Inhibition Zone of Test Microorganism ([7]; Penicillium notatum (JP36 P1), 50 μL of 1 mg/mL in DMSO, 18 h, 30 °C, amphotericin B 10 µg/mL): 19 mm; Inhibition Zone of Test Microorganism [8]: 19 mm |
| O=C(O)c1cn(C2CC2)c2cc(N3CCNCC3)c(F)cc2c1=O [Ciprofloxacin, reference compound] | - |  |  |  |  |  |  |  |  |  |  |  |  | Inhibition Zone of Test Microorganism [9]: 29 mm; Inhibition Zone of Test Microorganism [10]: 16 mm; Inhibition Zone of Test Microorganism [11]: 32 mm; Inhibition Zone of Test Microorganism [12]: 22 mm; Inhibition Zone of Test Microorganism [13]: 19 mm |
| O=C1CC(c2cccc(O)c2O)Oc2cc3c(c(O)c21)OCO3 (centres unmarked) [Compound 5, 5,2′,3′-Trihydroxy-6,7-methylenedioxyflavanone] |  | 13 | 13 | 20 | - | 13 | weak activity | 16.5 | 44.3 | > 100 | 69 | > 100 | most active; also recorded: broad activity against eight microorganisms out of eleven | zone of inhibition at 1000 µg/mL ([15]; Pseudomonas aeruginosa, read-out: Inhibition Zone of Test Microorganism): 17 mm; zone of inhibition at 1000 µg/mL [13, 20]: 15 mm; zone of inhibition at 1000 µg/mL [14, 20]: 13 mm; zone of inhibition at 1000 µg/mL ([7]; Penicillium chrysogenum, Penicillium notatum (JP36 P1), 50 μL of 1 mg/mL in DMSO, 18 h, 30 °C, amphotericin B 10 µg/mL, read-out: Inhibition Zone of Test Microorganism): 16 mm; antifungal activity in words ([7]; Penicillium notatum, agar diffusion): moderate activity |
| COc1cc2occ(-c3cccc(O)c3O)c(=O)c2c(O)c1OC [Compound 10, 5,2′,3′-Trihydroxy-6,7-dimethoxyisoflavone] | - | 13 | 13 | 16 | - | 13 | weak activity | 9.1 | 7.6 | 98.8 | 35.8 | > 100 | most active | Inhibition Zone of Test Microorganism ([15]; Pseudomonas aeruginosa (K799/61 B9), 50 μL of 1 mg/mL in DMSO, ciprofloxacin 5 µg/mL): -; antiproliferative activity in words ([1]; THP-1): active; antiproliferative activity in words ([2]; K-562): active |
